Consider one compound from patent US10125119B2, “Series of resveratrol-derivative fluorescently labeled molecules and synthesis method thereof” (Hangzhou Normal University, priority 2017, dated 2018).

In turn, `COc1cc(/C=C/c2ccc(Oc3nc(Cl)nc(-n4cc(-c5ccc(C(=C(c6ccccc6)c6ccccc6)c6ccccc6)cc5)nn4)n3)cc2)cc(OC)c1` [Product (I)] showed a melting point of 165 to 166 °C.
